Test system: NLRP3
Experiment: IL-1β secretion assay in PMA-differentiated, LPS/nigericin-stimulated THP-1 cells (384-well, ELISA read-out)
Type: cell-based, human
Conditions: Homo sapiens, THP-1, Table 4; IL-1β secretion, LPS/nigericin-stimulated THP-1 cells; read-out: IC50
Method in brief: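 THP-1 cells differentiated with PMA (5 ng/mL, 40 h), primed in serum-free medium with 25 ng/mL LPS for 2 h, treated with compounds 1 h (0.5% DMSO), then stimulated with nigericin for 2 h at 37 °C. Supernatant IL-1β measured by ELISA; responses normalized to LPS+5 μM nigericin and LPS-only controls.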

Row | Compound | IC50 [nM]
1 | COc1ncc(F)c(NC(=O)CN2CC3(CC3)c3cc(Br)ccc3C2=O)n1 [Example 391, 2-(6-bromo-1-oxospiro[3H-isoquinoline-4,1′-cyclopropane]-2-yl)-N-(5-fluoro-2-methoxypyrimidin-4-yl)acetamide] | 22400
2 | N#Cc1cc(F)cnc1NC(=O)CN1CC2(CC2)c2cc(Br)ccc2C1=O [Example 392, 2-(6-bromo-1-oxospiro[3H-isoquinoline-4,1′-cyclopropane]-2-yl)-N-(3-cyano-5-fluoropyridin-2-yl)acetamide] | 5700
3 | CCN1CCC12CC(NC(=O)CN1CC3(CC3)c3cc(Br)ccc3C1=O)C2 (centres unmarked) [Example 393, 2-(6-bromo-1-oxospiro[3H-isoquinoline-4,1′-cyclopropane]-2-yl)-N-(1-ethyl-1-azaspiro[3.3]heptan-6-yl)acetamide] | 7890
4 | CC(C)(C)OC(=O)N1CCC12CC(NC(=O)CN1CC3(CC3)c3cc(Br)ccc3C1=O)C2 (centres unmarked) [Example 394, tert-butyl 6-[[2-(6-bromo-1-oxospiro[3H-isoquinoline-4,1′-cyclopropane]-2-yl)acetyl]amino]-1-azaspiro[3.3]heptane-1-carboxylate] | 5210
5 | N#Cc1cnc(NC(=O)CN2CC3(CC3)c3cc(Br)ccc3C2=O)c(Cl)c1 [Example 395, 2-(6-bromo-1-oxospiro[3H-isoquinoline-4,1′-cyclopropane]-2-yl)-N-(3-chloro-5-cyanopyridin-2-yl)acetamide] | 1380
6 | Cc1cnc(NC(=O)CN2CC3(CC3)c3cc(Br)ccc3C2=O)c(F)c1 [Example 396, 2-(6-bromo-1-oxospiro[3H-isoquinoline-4,1′-cyclopropane]-2-yl)-N-(3-fluoro-5-methylpyridin-2-yl)acetamide] | 1600
7 | Cc1cc(C#N)cnc1NC(=O)CN1CC2(CC2)c2cc(Br)ccc2C1=O [Example 397, 2-(6-bromo-1-oxospiro[3H-isoquinoline-4,1′-cyclopropane]-2-yl)-N-(5-cyano-3-methylpyridin-2-yl)acetamide] | 2000
8 | O=C(CN1CC2(CC2)c2cc(Br)ccc2C1=O)Nc1ccc2cnsc2c1 [Example 398, N-(1,2-benzothiazol-6-yl)-2-(6-bromo-1-oxospiro[3H-isoquinoline-4,1′-cyclopropane]-2-yl)acetamide] | 1910
9 | Cc1cnc2ccc(NC(=O)CN3CC4(CC4)c4cc(Br)ccc4C3=O)nn12 [Example 399, 2-(6-bromo-1-oxospiro[3H-isoquinoline-4,1′-cyclopropane]-2-yl)-N-(3-methylimidazo[1,2-b]pyridazin-6-yl)acetamide] | 1350
10 | Cc1cn2nc(NC(=O)CN3CC4(CC4)c4cc(Br)ccc4C3=O)ccc2n1 [Example 400, 2-(6-bromo-1-oxospiro[3H-isoquinoline-4,1′-cyclopropane]-2-yl)-N-(2-methylimidazo[1,2-b]pyridazin-6-yl)acetamide] | 612
11 | COc1ncnc(NC(=O)CN2CC3(CC3)c3cc(Br)ccc3C2=O)c1F [Example 401, 2-(6-bromo-1-oxospiro[3H-isoquinoline-4,1′-cyclopropane]-2-yl)-N-(5-fluoro-6-methoxypyrimidin-4-yl)acetamide] | 1890
12 | Cc1c(NC(=O)CN2CC3(CC3)c3cc(Br)ccc3C2=O)nn2ccccc12 [Example 402, 2-(6-bromo-1-oxospiro[3H-isoquinoline-4,1′-cyclopropane]-2-yl)-N-(3-methylpyrazolo[1,5-a]pyridin-2-yl)acetamide] | 9270
13 | O=C(CN1CC2(CC2)c2cc(Br)ccc2C1=O)Nc1nn2ccccc2c1F [Example 403, 2-(6-bromo-1-oxospiro[3H-isoquinoline-4,1′-cyclopropane]-2-yl)-N-(3-fluoropyrazolo[1,5-a]pyridin-2-yl)acetamide] | 2320
14 | O=C(CN1CC2(CC2)c2cc([C@@]3(F)C[C@H]3C(F)(F)F)ccc2C1=O)Nc1ncc(F)cn1 [Example 404, N-(5-fluoropyrimidin-2-yl)-2-[6-[(1r,2r)-1-fluoro-2-(trifluoromethyl)cyclopropyl]-1-oxospiro[3H-isoquinoline-4,1′-cyclopropane]-2-yl]acetamide] | 3890
15 | CC1(C)COC(NC(=O)CN2CC3(CC3)c3cc(Br)ccc3C2=O)=N1 [Example 405, 2-(6-bromo-1-oxospiro[3H-isoquinoline-4,1′-cyclopropane]-2-yl)-N-(4,4-dimethyl-5H-1,3-oxazol-2-yl)acetamide] | 18000
16 | O=C(CN1CC2(CC2)c2cc(Br)ccc2C1=O)NC1CCNC1=O (centres unmarked) [Example 406, 2-(6-bromo-1-oxospiro[3H-isoquinoline-4,1′-cyclopropane]-2-yl)-N-(2-oxopyrrolidin-3-yl)acetamide] | 16100
17 | COc1cccnc1NC(=O)CN1CC2(CC2)c2cc(Br)ccc2C1=O [Example 407, 2-(6-bromo-1-oxospiro[3H-isoquinoline-4,1′-cyclopropane]-2-yl)-N-(3-methoxypyridin-2-yl)acetamide] | 4280
18 | Cn1ncc2cnc(NC(=O)CN3CC4(CC4)c4cc(Br)ccc4C3=O)nc21 [Example 408, 2-(6-bromo-1-oxospiro[3H-isoquinoline-4,1′-cyclopropane]-2-yl)-N-(1-methylpyrazolo[3,4-d]pyrimidin-6-yl)acetamide] | 827

Row | Compound | IC50 [nM]
19 | O=C(CN1CC2(CC2)c2cc(Br)ccc2C1=O)Nc1ncc2ncsc2n1 [Example 409, 2-(6-bromo-1-oxospiro[3H-isoquinoline-4,1′-cyclopropane]-2-yl)-N-([1,3]thiazolo[5,4-d]pyrimidin-5-yl)acetamide] | 1370
20 | O=C(CN1CC2(CC2)c2cc(Br)ccc2C1=O)Nc1ccnnc1 [Example 410, 2-(6-bromo-1-oxospiro[3H-isoquinoline-4,1′-cyclopropane]-2-yl)-N-pyridazin-4-ylacetamide] | 1520
21 | O=C(CN1CC2(CC2)c2cc(Br)ccc2C1=O)Nc1cnccn1 [Example 411, 2-(6-bromo-1-oxospiro[3H-isoquinoline-4,1′-cyclopropane]-2-yl)-N-pyrazin-2-ylacetamide] | 1340
22 | Cc1nc(NC(=O)CN2CC3(CC3)c3cc(Br)ccc3C2=O)nn1-c1ccccc1 [Example 412, 2-(6-bromo-1-oxospiro[3H-isoquinoline-4,1′-cyclopropane]-2-yl)-N-(5-methyl-1-phenyl-1,2,4-triazol-3-yl)acetamide] | 3170
23 | O=C(CN1CC2(CC2)c2cc(Br)ccc2C1=O)Nc1ncn(-c2ccccc2)n1 [Example 413, 2-(6-bromo-1-oxospiro[3H-isoquinoline-4,1′-cyclopropane]-2-yl)-N-(1-phenyl-1,2,4-triazol-3-yl)acetamide] | 2020
24 | N#Cc1ccc(NC(=O)CN2CC3(CC3)c3cc(Br)ccc3C2=O)cn1 [Example 414, 2-(6-bromo-1-oxospiro[3H-isoquinoline-4,1′-cyclopropane]-2-yl)-N-(6-cyanopyridin-3-yl)acetamide] | 1260
25 | Cn1ccc(N2CCC(NC(=O)CN3CC4(CC4)c4cc(Br)ccc4C3=O)C2)n1 (centres unmarked) [Example 415, 2-(6-bromo-1-oxospiro[3H-isoquinoline-4,1′-cyclopropane]-2-yl)-N-[1-(1-methylpyrazol-3-yl)pyrrolidin-3-yl]acetamide] | 21000
26 | Cn1cc(N2CCC(NC(=O)CN3CC4(CC4)c4cc(Br)ccc4C3=O)C2)cn1 (centres unmarked) [Example 416, 2-(6-bromo-1-oxospiro[3H-isoquinoline-4,1′-cyclopropane]-2-yl)-N-[1-(1-methylpyrazol-4-yl)pyrrolidin-3-yl]acetamide] | 20800
27 | Cn1cc(N2CCCC(NC(=O)CN3CC4(CC4)c4cc(Br)ccc4C3=O)C2)cn1 (centres unmarked) [Example 417, 2-(6-bromo-1-oxospiro[3H-isoquinoline-4,1′-cyclopropane]-2-yl)-N-[1-(1-methylpyrazol-4-yl)piperidin-3-yl]acetamide] | 11700
28 | COc1ccc(NC(=O)CN2CC3(CC3)c3cc(Br)ccc3C2=O)cn1 [Example 418, 2-(6-bromo-1-oxospiro[3H-isoquinoline-4,1′-cyclopropane]-2-yl)-N-(6-methoxypyridin-3-yl)acetamide] | 3480
29 | O=C(CN1CC2(CC2)c2cc(Br)ccc2C1=O)Nc1ncc(C(F)F)cc1F [Example 419, 2-(6-bromo-1-oxospiro[3H-isoquinoline-4,1′-cyclopropane]-2-yl)-N-[5-(difluoromethyl)-3-fluoropyridin-2-yl]acetamide] | 769
30 | O=C(CN1CC2(CC2)c2cc(Br)ccc2C1=O)Nc1ccc(OC(F)F)nc1 [Example 420, 2-(6-bromo-1-oxospiro[3H-isoquinoline-4,1′-cyclopropane]-2-yl)-N-[6-(difluoromethoxy)pyridin-3-yl]acetamide] | 3800
31 | CC(C)n1cnc(NC(=O)CN2CC3(CC3)c3cc(Br)ccc3C2=O)n1 [Example 421, 2-(6-bromo-1-oxospiro[3H-isoquinoline-4,1′-cyclopropane]-2-yl)-N-(1-propan-2-yl-1,2,4-triazol-3-yl)acetamide] | 2730
32 | O=C(CN1CC2(CC2)c2cc(Br)ccc2C1=O)Nc1ncn(C2CC2)n1 [Example 422, 2-(6-bromo-1-oxospiro[3H-isoquinoline-4,1′-cyclopropane]-2-yl)-N-(1-cyclopropyl-1,2,4-triazol-3-yl)acetamide] | 3080
33 | O=C(CN1CC2(CC2)c2cc(CC3CC3)ccc2C1=O)Nc1ncc(F)cn1 [Example 423, 2-[6-(cyclopropylmethyl)-1-oxospiro[3H-isoquinoline-4,1′-cyclopropane]-2-yl]-N-(5-fluoropyrimidin-2-yl)acetamide] | 18400
34 | O=C(CN1CC2(CC2)c2cc(Br)ccc2C1=O)Nc1ncc(C2=COCC2)cn1 [Example 424, 2-(6-bromo-1-oxospiro[3H-isoquinoline-4,1′-cyclopropane]-2-yl)-N-[5-(2,3-dihydrofuran-4-yl)pyrimidin-2-yl]acetamide] | 700
35 | O=C(CN1CC2(CC2)c2cc(Br)ccc2C1=O)Nc1ncn(CC(F)(F)F)n1 [Example 425, 2-(6-bromo-1-oxospiro[3H-isoquinoline-4,1′-cyclopropane]-2-yl)-N-[1-(2,2,2-trifluoroethyl)-1,2,4-triazol-3-yl]acetamide] | 2850
